US20230201240A1, “TREATMENT OF ADVANCED METASTATIC CANCER” (Can-Fite Biopharma Ltd., priority 2021, published 2023)
“Also recorded” adds a separate entry of the source. Read-outs that look alike come from different tables or passages of the source.

How the values were obtained:
HCC = conditions: syngeneic orthotopic and xenograft models; cited from earlier work
[1] = test system: advanced HCC and CPB cirrhosis; test: Phase II randomized, double-blind, placebo-controlled study of namodenoson in advanced HCC with CPB cirrhosis (NCT02128958); assay type: in vivo, human
Description: The diagnosis of HCC in subjects without underlying cirrhosis at the time of diagnosis required cytology and/or histology; for subjects with underlying cirrhosis at the time of diagnosis, HCC diagnosis was established according to the American Association for the Study of Liver Diseases practice guidelines algorithm [Marrero J. A., et al., Hepatology. 2018; 68:723-750]. For subjects who had tolerated sorafenib, ≥3 weeks of prior treatment was required, terminating at ≥2 weeks before study entry. Inclusion criteria included: ECOG PS≤2; having CPB cirrhosis (i.e., CP score 7-9); aspartate aminotransferase (AST) and alanine aminotransferase (ALT) levels ≤5 times the upper limit of normal (ULN); total bilirubin, ≤3.0 mg/dL; serum albumin, ≥2.8 g/dL; prothrombin time (PT), ≤6 s longer than control; serum creatinine, ≤2.0 mg/dL; absolute neutrophil count, […]; and platelet count, […]. Exclusion criteria included: the presence of hepatic encephalopathy; and gastrointestinal hemorrhage requiring transfusion occurring within the past 4 weeks.
This was a multicenter, randomized, double-blind, placebo-controlled clinical trial (ClinicalTrials.gov identifier NCT02128958). The trial was conducted at 15 sites in Israel, Europe, and the United States. Subjects were enrolled by the participating centers and were randomly assigned 2:1, using a central randomization schedule generated by an independent biostatistician with no stratification prior to randomization. Patients were randomized to either namodenoson (Cl-IB-MECA) 25 mg or matching placebo, administered orally every 12 hours until discontinuation due to intolerance, withdrawal of consent, or death. Though treatment was administered in a continuous manner, the treatment period was divided into 4-week cycles for the purpose of data recording. No crossover was initially allowed; however, by protocol amendment, patients that continued with blinded treatment were offered namodenoson (25 mg twice daily) upon unblinding of the treatment assignments. All study site personnel were blinded to patients' treatment throughout the study period. The study was approved by all relevant national regulatory authorities and local Ethics Committees/Institutional Review Boards. The study was conducted in accordance with the Declaration of Helsinki, and written informed consent was obtained from all the patients.
The primary endpoint of the study was overall survival (OS). Secondary endpoints were progression-free survival (PFS), overall response rate (ORR), disease control rate (DCR), and safety. […] 2019, 70:1262-1277]. Disease response assessment was evaluated locally by 2 independent blinded radiologists using Response Evaluation Criteria in Solid Tumors (RECIST) version 1.1 [Eisenhauer E. A., et al. Eur. J. Cancer. 2009; 45:228-247]. Tumor status was assessed at baseline and every 8 weeks thereafter by computed tomography scan or magnetic resonance imaging. Safety was monitored through assessments of AEs using the US National Cancer Institute's Common Terminology Criteria for Adverse Events (CTCAE) v4.03. Changes from baseline in vital signs, clinical laboratory parameters, electrocardiograms, physical examinations, and ECOG PS were also assessed. AFP levels were assessed at baseline and every 4 weeks thereafter, as were laboratory parameters associated with hepatic dysfunction and cirrhosis, such as serum ALT, AST, bilirubin, and albumin levels, PT, and international normalized ratio. ALBI scores were calculated from the albumin and bilirubin levels, as previously described [Johnson P. J., et al. J. Clin. Oncol. 2015; 33:550-558].
Power calculation determined that 75 deaths, assuming a hazard ratio of 0.5, would provide 80% power for the log-rank test at a significance level of 0.05. Primary efficacy analyses were performed on the ITT population. Descriptive statistics were used to summarize patient/tumor characteristics and safety. […]

[2] = test system: advanced unresectable HCC; conditions: cited from earlier work
[3] = 9 patients with Child-Pugh Score 9
[4] = 34 namodenoson-treated patients with post-baseline assessment
[5] = n = 34 with at least 1 post-baseline assessment
[6] = patients with Child-Pugh score 7
[7] = patients with Child-Pugh score 8

CNC(=O)[C@H]1O[C@@H](n2cnc3c(NCc4cccc(I)c4)nc(Cl)nc32)[C@H](O)[C@@H]1O [namodenoson, 2-chloro-N^6-(3-iodobenzyl)-adenosine-5′-N-methyluronamide]
effect towards HCC (HCC): induces an apoptotic effect
treatment-related deaths ([1]; 25 mg BID oral): No treatment-related deaths
median OS [1, 3]: 3.5 months
median PFS [1, 3]: 2.2 months
PR achieved, number of patients [1, 4]: 3 patients
PR achieved, share of patients [1, 4]: 9%
patients who experienced CR [1, 4]: one patient
OS HR vs placebo ([1]; Child-Pugh score 7, 95% CI 0.45-1.43, p=0.46): 0.81
PFS HR vs placebo ([1]; Child-Pugh score 7, 95% CI 0.51-1.55, p=0.67): 0.89
PFS HR vs placebo ([1]; Child-Pugh score 8, 95% CI 0.23-2.17, p=0.53): 0.71
OS HR vs placebo ([1]; Child-Pugh score 8, 95% CI 0.28-2.77, p=0.83): 0.88
survival of single patient in Open Label Extension ([1]; advanced metastatic HCC, CPB7, 25 mg orally twice a day): survived five years
response of single patient in Open Label Extension ([1]; advanced metastatic HCC, CPB7, 25 mg orally twice a day for 5 years): Complete Response (CR); also recorded: complete remission of the cancer
mean serum albumin levels and albumin-bilirubin (ALBI) scores ([1]; in vivo): did not change significantly
withdrawals and dose reductions attributable to namodenoson ([1]; in vivo, po): no patients withdrew from the study and no dose reductions were attributable to namodenoson
Best observed response (RECIST 1.1): CR [1, 5]: 1 (2.94%) n (%)
Best observed response (RECIST 1.1): PD [1, 5]: 14 (41.2%) n (%)
Best observed response (RECIST 1.1): PR [1, 5]: 3 (8.8%) n (%)
Best observed response (RECIST 1.1): SD [1, 5]: 17 (50.0%) n (%)
12-month OS rate ([1]; p=0.028 vs placebo, FIG. 1: patients with Child-Pugh Score 7, 25 mg BID): 44%
median OS [1, 6]: 6.9 months
median PFS [1, 6]: 3.5 months
OS [1, 7]: 3.3 months
PFS [1, 7]: 2.1 months
clinical benefits of treatment (scan of chest, abdomen, pelvis) ([1]; single patient, advanced metastatic HCC, CPB7, 25 mg orally twice a day): disappearance of ascites, normal liver function, and the disappearance of peritoneal carcinomatosis
progression-free survival (PFS) superiority over placebo ([1]; whole study population): no superiority
median OS ([1]; whole study population, 25 mg BID oral): 4.1 months
OS hazard ratio [HR] vs placebo ([1]; whole study population, 95% CI 0.49-1.38, p=0.46): 0.82
Median overall survival (OS) ([2]; CPB patients (28%)): 8.1 months
safety and tolerability ([2]; in vivo): safe and well-tolerated
Median overall survival (OS) ([2]; whole study population, 67% failed prior sorafenib): 7.8 months
